Results published in patent US6737383B1, “Herbicidal oxadiazolidines” (priority 1999, dated 2004).

Legend:
soybean = test: Test B pre/postemergence soybean; assay type: in vivo, Glycine max
How it was run: (§1)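 Test chemicals in a non-phytotoxic solvent mixture with surfactant were sprayed preemergence onto planted seeds and postemergence onto plants 2 to 18 cm tall (1- to 4-leaf stage). After twelve to sixteen days in a greenhouse, injury was visually rated against untreated controls from 0 (no effect) to 10 (complete control).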

crabgrass = test: Test B pre/postemergence crabgrass; assay type: in vivo, Digitaria sanguinalis
How it was run: as §1

purple nutsedge = test: Test B pre/postemergence purple nutsedge; assay type: in vivo, Cyperus rotundus
How it was run: as §1

duck salad = test: Test B flood test duck salad; assay type: in vivo, Heteranthera limosa
How it was run: (§2)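 Flood test on plants grown to the 2-leaf stage; treated plants kept in greenhouse twelve to sixteen days, then visually rated against controls on a 0 (no effect) to 10 (complete control) scale.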

bedstraw = test: Test B pre/postemergence bedstraw; assay type: in vivo, Galium aparine; details: Postemergence
How it was run: as §1

wild oat = test: Test B pre/postemergence wild oat; assay type: in vivo, Avena fatua
How it was run: as §1

bamyardgrass = test: Test B flood test barnyardgrass; assay type: in vivo, Echinochloa crus-galli
How it was run: as §2

morningglory = test: Test B pre/postemergence morningglory; assay type: in vivo, Ipomoea hederacea
How it was run: as §1

surinam grass = test: Test B pre/postemergence surinam grass; assay type: in vivo, Brachiaria decumbens
How it was run: as §1

smallflower flatsedge = test: Test B flood test smallflower flatsedge; assay type: in vivo, Cyperus difformis
How it was run: as §2

corn = test: Test B pre/postemergence corn; assay type: in vivo, Zea mays
How it was run: as §1

cocklebur = test: Test B pre/postemergence cocklebur; assay type: in vivo, Xanthium strumarium
How it was run: as §1

rape = test: Test B pre/postemergence rape; assay type: in vivo, Brassica napus
How it was run: as §1

blackgrass = test: Test B pre/postemergence blackgrass; assay type: in vivo, Alopecurus myosuroides
How it was run: as §1

sugar beet = test: Test B pre/postemergence sugar beet; assay type: in vivo, Beta vulgaris
How it was run: as §1

rice = test: Test B flood test rice; assay type: in vivo, Oryza sativa
How it was run: as §2

pigweed = test: Test B pre/postemergence pigweed; assay type: in vivo, Amaranthus retroflexus
How it was run: as §1

velvetleaf = test: Test B pre/postemergence velvetleaf; assay type: in vivo, Abutilon theophrasti
How it was run: as §1

giant foxtail = test: Test B pre/postemergence giant foxtail; assay type: in vivo, Setaria faberii
How it was run: as §1

wheat = test: Test B pre/postemergence wheat; assay type: in vivo, Triticum aestivum
How it was run: as §1

[1] = Postemergence, Rate 125 g/ha, scale 0 to 10, 0 is no effect, 10 is complete control
[2] = Postemergence, Rate 500 g/ha, scale 0 to 10, 0 is no effect, 10 is complete control
[3] = Preemergence, Rate 62 g/ha, scale of 0 to 10 where 0 is no effect and 10 is complete control
[4] = Preemergence, Rate 125 g/ha, scale 0 to 10, 0 is no effect, 10 is complete control
[5] = Preemergence, Rate 500 g/ha, scale 0 to 10, 0 is no effect, 10 is complete control
[6] = Rate 62 g/ha, Postemergence, scale 0 to 10, 0 no effect, 10 complete control
[7] = Postemergence, Rate 250 g/ha, scale 0 to 10
[8] = Rate 62 g/ha, flood test species, Pre-emergence, visual evaluation after twelve to sixteen days
[9] = Rate 125 g/ha, under heading Pre-emergence, flood test species, visual evaluation after twelve to sixteen days
[10] = Rate 250 g/ha, Pre-emergence (flood test species), scale 0 to 10, 0 is no effect, 10 is complete control
[11] = Rate 500 g/ha, Pre-emergence section of Table B, 0 to 10 scale (0 no effect, 10 complete control)
[12] = Preemergence, Rate 250 g/ha, scale 0 to 10, 0 is no effect, 10 is complete control

With CC(C)N(C(=O)n1oc(=O)n(CC(=O)C2CC2)c1=O)c1ccc(F)cc1 [Compound 488] the “Soybean plant response rating” value (soybean; [1]) was 4, the “Plant response rating, Soybean” value (soybean; [2]) was 5 and the “Plant response rating, Soybean” value (soybean; [3]) was 0. The “Soybean plant response rating” value (soybean; [4]) was 0, the “Soybean plant response rating” value (soybean; [5]) was 1 and the “Soybean plant response rating” value (soybean; [6]) was 4. The “Crabgrass plant response rating” value (crabgrass; [1]) was 7, the “Crabgrass plant response rating” value (crabgrass; [7]) was 8 and the “Plant response rating, Crabgrass” value (crabgrass; [2]) was 9. The “Plant response rating, Crabgrass” value (crabgrass; [3]) was 8, the “Crabgrass plant response rating” value (crabgrass; [4]) was 10 and the “Crabgrass plant response rating” value (crabgrass; [5]) was 10. The “Nutsedge plant response rating” value (purple nutsedge; [1]) was 0, the “Plant response rating, Nutsedge” value (purple nutsedge; [2]) was 2 and the “Plant response rating, Nutsedge” value (purple nutsedge; [3]) was 0. The “Nutsedge plant response rating” value (purple nutsedge; [4]) was 0, the “Nutsedge plant response rating” value (purple nutsedge; [5]) was 0 and the “Nutsedge plant response rating” value (purple nutsedge; [6]) was 0. The “Plant response rating, Ducksalad (0 to 10 scale, 0 is no effect, 10 is complete control)” value (duck salad; [8]) was 0, the “Ducksalad plant response rating (0 to 10 scale, 0 is no effect, 10 is complete control)” value (duck salad; [9]) was 0 and the “Ducksalad plant response rating” value (duck salad; [10]) was 0. The “Ducksalad plant response rating” value (duck salad; [11]) was 0, the “Bedstraw plant response rating” value (bedstraw; Rate 125 g/ha, scale 0 to 10, 0 is no effect, 10 is complete control) was 2 and the “Bedstraw plant response rating” value (bedstraw; Rate 250 g/ha, scale 0 to 10) was 4. For the same molecule, the “Plant response rating, Bedstraw” value (bedstraw; Rate 500 g/ha, scale 0 to 10, 0 is no effect, 10 is complete control) was 9, the “Bedstraw plant response rating” value (bedstraw; Rate 62 g/ha, scale 0 to 10, 0 no effect, 10 complete control) was 0 and the “Wild oats plant response rating” value (wild oat; [1]) was 0. The “Plant response rating, Wild oats” value (wild oat; [2]) was 5, the “Plant response rating, Wild oats” value (wild oat; [3]) was 3 and the “Wild oats plant response rating” value (wild oat; [4]) was 8. The “Wild oats plant response rating” value (wild oat; [5]) was 10, the “Wild oats plant response rating” value (wild oat; [6]) was 0 and the “Plant response rating, Barnyardgrass (0 to 10 scale, 0 is no effect, 10 is complete control)” value (bamyardgrass; [8]) was 0. For the same molecule, the “Barnyardgrass plant response rating (0 to 10 scale, 0 is no effect, 10 is complete control)” value (bamyardgrass; [9]) was 0, the “Barnyardgrass plant response rating” value (bamyardgrass; [10]) was 0 and the “Barnyardgrass plant response rating” value (bamyardgrass; [11]) was 0. The “Morningglory plant response rating” value (morningglory; [1]) was 2, the “Plant response rating, Morningglory” value (morningglory; [2]) was 8 and the “Plant response rating, Morningglory” value (morningglory; [3]) was 0. For the same molecule, the “Morningglory plant response rating” value (morningglory; [4]) was 0, the “Morningglory plant response rating” value (morningglory; [5]) was 0 and the “Morningglory plant response rating” value (morningglory; [6]) was 1. The “B. signalgrass plant response rating” value (surinam grass; [1]) was 4, the “B. signalgrass plant response rating” value (surinam grass; Postemergence, Rate 250 g/ha, scale 0 to 10, 0 no effect, 10 complete control) was 6 and the “Plant response rating, B. signalgrass” value (surinam grass; [2]) was 7. For the same molecule, the “Plant response rating, B. signalgrass” value (surinam grass; [3]) was 4, the “B. signalgrass plant response rating” value (surinam grass; [4]) was 7 and the “B. signalgrass plant response rating” value (surinam grass; [12]) was 7. The “B. signalgrass plant response rating” value (surinam grass; [5]) was 10, the “B. signalgrass plant response rating” value (surinam grass; [6]) was 0 and the “Plant response rating, S. Flatsedge (0 to 10 scale, 0 is no effect, 10 is complete control)” value (smallflower flatsedge; [8]) was 0. The “S. Flatsedge plant response rating (0 to 10 scale, 0 is no effect, 10 is complete control)” value (smallflower flatsedge; [9]) was 0, the “S. Flatsedge plant response rating” value (smallflower flatsedge; [10]) was 0 and the “S. Flatsedge plant response rating” value (smallflower flatsedge; [11]) was 0. The “Corn plant response rating” value (corn; [1]) was 0, the “Corn plant response rating” value (corn; [7]) was 0 and the “Plant response rating, Corn” value (corn; [2]) was 0. For the same molecule, the “Plant response rating, Corn” value (corn; [3]) was 0, the “Corn plant response rating” value (corn; [4]) was 0 and the “Corn plant response rating” value (corn; [5]) was 6. For the same molecule, the “Corn plant response rating” value (corn; [6]) was 0, the “Cocklebur plant response rating” value (cocklebur; [1]) was 0 and the “Cocklebur plant response rating” value (cocklebur; [7]) was 0. For the same molecule, the “Plant response rating, Cocklebur” value (cocklebur; [2]) was 0, the “Plant response rating, Cocklebur” value (cocklebur; [3]) was 0 and the “Cocklebur plant response rating” value (cocklebur; [4]) was 0. The “Cocklebur plant response rating” value (cocklebur; [12]) was 0, the “Cocklebur plant response rating” value (cocklebur; [5]) was 0 and the “Cocklebur plant response rating” value (cocklebur; [6]) was 0. For the same molecule, the “Rape plant response rating” value (rape; [1]) was 0, the “Plant response rating, Rape” value (rape; [2]) was 0 and the “Plant response rating, Rape” value (rape; [3]) was 1. The “Rape plant response rating” value (rape; [4]) was 7, the “Rape plant response rating” value (rape; [5]) was 10 and the “Rape plant response rating” value (rape; [6]) was 0. The “Blackgrass plant response rating” value (blackgrass; [1]) was 8, the “Blackgrass plant response rating” value (blackgrass; [7]) was 8 and the “Plant response rating, Blackgrass” value (blackgrass; [2]) was 8. For the same molecule, the “Plant response rating, Blackgrass” value (blackgrass; [3]) was 5, the “Blackgrass plant response rating” value (blackgrass; [4]) was 8 and the “Blackgrass plant response rating” value (blackgrass; [12]) was 8. The “Blackgrass plant response rating” value (blackgrass; [5]) was 10, the “Blackgrass plant response rating” value (blackgrass; [6]) was 1 and the “Sugarbeets plant response rating” value (sugar beet; [1]) was 0. The “Plant response rating, Sugarbeets” value (sugar beet; [2]) was 1, the “Plant response rating, Sugarbeets” value (sugar beet; [3]) was 0 and the “Sugarbeets plant response rating” value (sugar beet; [4]) was 4. For the same molecule, the “Sugarbeets plant response rating” value (sugar beet; [5]) was 7, the “Sugarbeets plant response rating” value (sugar beet; [6]) was 0 and the “Plant response rating, Rice (0 to 10 scale, 0 is no effect, 10 is complete control)” value (rice; [8]) was 0. For the same molecule, the “Rice plant response rating (0 to 10 scale, 0 is no effect, 10 is complete control)” value (rice; [9]) was 0, the “Rice plant response rating” value (rice; [10]) was 0 and the “Rice plant response rating” value (rice; [11]) was 0. The “Redroot pigweed plant response rating” value (pigweed; [1]) was 0, the “Plant response rating, Redroot pigweed” value (pigweed; [2]) was 2 and the “Plant response rating, Redroot pigweed” value (pigweed; [3]) was 4. For the same molecule, the “Redroot pigweed plant response rating” value (pigweed; [4]) was 10, the “Redroot pigweed plant response rating” value (pigweed; [5]) was 10 and the “Redroot pigweed plant response rating” value (pigweed; [6]) was 0. The “Velvetleaf plant response rating” value (velvetleaf; [1]) was 0, the “Plant response rating, Velvetleaf” value (velvetleaf; [2]) was 1 and the “Plant response rating, Velvetleaf” value (velvetleaf; [3]) was 0. For the same molecule, the “Velvetleaf plant response rating” value (velvetleaf; [4]) was 2, the “Velvetleaf plant response rating” value (velvetleaf; [5]) was 6 and the “Velvetleaf plant response rating” value (velvetleaf; [6]) was 0. For the same molecule, the “Giant foxtail plant response rating” value (giant foxtail; [1]) was 8, the “Plant response rating, Giant foxtail” value (giant foxtail; [2]) was 9 and the “Plant response rating, Giant foxtail” value (giant foxtail; [3]) was 9. For the same molecule, the “Giant foxtail plant response rating” value (giant foxtail; [4]) was 10, the “Giant foxtail plant response rating” value (giant foxtail; [5]) was 10 and the “Giant foxtail plant response rating” value (giant foxtail; [6]) was 5. For the same molecule, the “Wheat plant response rating” value (wheat; [1]) was 0, the “Plant response rating, Wheat” value (wheat; [2]) was 3 and the “Plant response rating, Wheat” value (wheat; [3]) was 0. The “Wheat plant response rating” value (wheat; [4]) was 0, the “Wheat plant response rating” value (wheat; [5]) was 5 and the “Wheat plant response rating” value (wheat; [6]) was 0.
